Laboratory results as given in patent US20220257541A1, “Lacosamide for the Treatment of ADD/ADHD” (priority 2019, published 2022).

Assays:
[1] = system: patient with ADHD of the combined type; experiment: Case Study 1: lacosamide mono-therapy in a child with ADHD; assay type: in vivo, human
Description: We present the case study of a child suffering from ADHD (with no comorbidity such as epilepsy or bipolar disorder). The child was treated with a lacosamide mono-therapy for several weeks based on the conventional treatment regime for lacosamide in children (for the treatment of epilepsy and/or bipolar disorder).
This case study describes the case of a person (“the patient”) with ADHD of the combined type. The patient had not previously been treated with any psychotropic drugs.
Before initiating the selected drug treatment, the patient underwent a full medical examination. In addition, reports from their school teachers as well as parents were collected.
Lacosamide was administered to the patient following the approved treatment regimen for lacosamide (Vimpat®) in epileptic children from 4 years of age.
The treatment was delivered twice a day and went on for >8 weeks.

[2] = system: children and adolescents with ADHD syndrome; experiment: Case Study 3: STROOP-P test; assay type: in vivo, human
Description: These tests offered an objective element that contributed to the establishment of the diagnosis.
Neuropsychological evaluation was repeated after six months on medication, at the end of the study. These evaluations were guided by trained neuropsychologists. Four different evaluations were conducted: Continuous Performance Test (CPT)1, STROOP-P test, Wisconsin Card sorting Test and the Non Verbal Intelligence Test.
The patients were assessed using the STROOP-P test, which is used to assess the ability to inhibit cognitive interference that occurs when the processing of a specific stimulus feature impedes the simultaneous processing of a second stimulus attribute, well-known as the Stroop Effect.

[3] = system: children and adolescents with ADHD syndrome; experiment: Case Study 3: 'PASA' clinical questionnaire (Thinking, Mood, Sleep, Alterity); assay type: in vivo, human
Description: This study describes a series of cases of 12 children and adolescents (aged between 7 and 17 year old) treated with lacosamide. The patients were from 3 different orphanages and under the general supervision of a tutor.
We administrated doses adjusted to age and weight of each patient, in line with the therapeutic doses described herein. Specifically, lacosamide was administered to the patients following the approved treatment regimen for lacosamide (Vimpat®) in epileptic children from 4 years of age as per Table 1 above. The patients were at constant supervision of the tutor and other personnel of the orphanages.
After being selected by the tutors, children were evaluated during a clinical consultation carried out in their own institution. Through this consultation, we verified the clinical condition of each child or adolescent, their records and anamnesis, if any. We also filled out the Clinical story forms. At the same time, we performed the first ‘PASA’ Evaluation. The ‘PASA’ Test is a clinical questionnaire that was developed by the inventor of the present application (see FIG. 1 for questionnaire questions). It includes examination of Thinking (“P” for “Pensamiento”), Mood (“A” for “Animo”), Sleep (“S” for “Sueno”) and Alterity (“A” for “Alteridad”).
‘PASA’ Evaluation was repeated every 60 days after initiating the medication. The four editions of this questionnaire were compared and analysed, drawing a close-up portrait of the clinical evolution of these cases.
The overall trend is very favourable in all cases. Patients' symptoms improved in all categories. In this study, the patients were evaluated before treatment with lacosamide (evaluation 1) and every 2 months in the course of the treatment.

[4] = system: voltage-gated calcium channels (L-, N-, P/Q, T-type channels); details: cited from earlier work
[5] = system: AMPA, kainate, NMDA, GABAA, GABAB, dopaminergic, serotonergic, adrenergic, muscarinic or cannabinoid receptors; details: cited from earlier work
GABA transaminase = GABA transaminase (Homo sapiens, UniProt P80404); details: cited from earlier work
[6] = after treatment, ~75% at the beginning

Sequence of GABA transaminase (P80404 29-500, species assumed): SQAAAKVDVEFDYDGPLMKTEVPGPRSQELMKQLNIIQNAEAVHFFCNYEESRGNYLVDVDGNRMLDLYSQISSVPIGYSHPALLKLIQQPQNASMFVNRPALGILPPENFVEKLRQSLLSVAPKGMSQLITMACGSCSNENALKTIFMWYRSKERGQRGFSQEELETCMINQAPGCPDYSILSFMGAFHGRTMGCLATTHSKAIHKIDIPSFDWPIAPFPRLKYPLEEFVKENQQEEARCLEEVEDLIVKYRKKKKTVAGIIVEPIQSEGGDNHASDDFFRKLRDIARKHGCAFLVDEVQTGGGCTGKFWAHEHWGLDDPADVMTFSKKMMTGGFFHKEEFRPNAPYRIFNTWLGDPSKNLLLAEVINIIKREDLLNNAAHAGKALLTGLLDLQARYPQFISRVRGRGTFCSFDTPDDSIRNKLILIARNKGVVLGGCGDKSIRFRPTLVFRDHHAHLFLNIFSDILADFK

Compound: COC[C@@H](NC(C)=O)C(=O)NCc1ccccc1 [lacosamide, (2R)-2-(acetylamino)-N-benzyl-3-methoxypropanamide]
- tolerance of the maximum dose administered ([1]; 250 mg/day): no signs of intolerance or inadequacy
- tolerance of the dose ([1]; Day 8, 25 mg every 12 hours (50 mg/day)): tolerated the dose well
- behaviour, sleeping activity, cognitive functionality ([1]; Day 8, 50 mg/day): No improvement
- adverse reaction observed ([1]; Day 8, 50 mg/day, ceased after the first few days of treatment): sporadic headaches
- quality of sleep or cognitive functionality ([1]; Day 15, 100 mg/day): No improvement
- quality of sleep ([1]; Day 23, 75 mg every 12 hours (150 mg/day)): Improvement
- cognitive functionality ([1]; Day 23, 150 mg/day): improved
- lethargic napping in the afternoon ([1]; Day 32, after increase to 200 mg/day, symptoms subsequently became milder): initially replaced with agitation and hyperactivity
- behaviour at school and home ([1]; Day 36, 200 mg/day): consistent improvement
- aggression or irritability at home ([1]; Day 49, 125 mg every 12 hours (250 mg/day)): did not show any aggression or irritability
- conversation in consultation ([1]; Day 49, 250 mg/day): able to sustain longer logical conversations, at least partially
- dysphasia ([1]; Day 63, 250 mg/day): gradual improvement
- hyperactivity ([1]; Day 63, 250 mg/day): no signs of hyperactivity
- quality of sleep ([1]; Day 63, 250 mg/day): dramatically improved
- dose after which sleep pattern and vegetative functions began to stabilize ([1]; administered as two separate 75 mg doses): 150 mg/day
- dose at which higher functions were stabilized ([1]; administered as two separate 100 mg doses): ~200 mg/day
- ADHD symptomatology ([1]; child, mono-therapy for several weeks): regressed dramatically
- secondary reactions or effects ([1]; twice a day for >8 weeks): No secondary reactions or effects were observed
- ability to inhibit cognitive interference ([2]; measured in both cerebral hemispheres): positive but to a limited extent
- patients with Average result, STROOP-P ([2]; second test, 8.3% in the first evaluation): 25%
- patients with Severe Deterioration, STROOP-P ([2]; second test, 25% initially): 8.3%
- Mood and Sleep symptoms in most patients ([3]; 12 patients, 6 months): complete or nearly complete alleviation of the symptoms
- all tested 'PASA' categories (Sleep Activity, Thoughts, Mood) ([3]; 12 patients, 6 months): positive impact
- patients with depressive unjustified feelings ([3]; after six months of treatment, from 25%): 0%
- patients with irritability ([3]; after treatment, from 33.3%): 16.7%
- patients with cenesthesia [3, 6]: 8.3%
- patients with hyper emotion [3, 6]: 25%
- patients with hypomania [3, 6]: 16.7%
- patients with lethargy [3, 6]: 8.3%
- patients with mood change [3, 6]: 0%
- patients with tiredness [3, 6]: 8.3%
- Trend of Thought: Disordered ([3]; end of study (6 months), 67% of 12 patients before treatment): completely disappeared
- Trend of Thought: Overabundant ([3]; end of study (6 months), 83% of 12 patients before treatment): completely disappeared
- distressing thoughts ([3]; end of study, 17% of patients at the beginning): completely eliminated
- patients with difficulties with falling asleep ([3]; end of study, from 75%): 0%
- patients with sleep interruption ([3]; end of study, from 83%): 8.3%
- patients with sudden off-sense disconnections (spacing out) ([3]; end of study, initially 50%): 33%
- patients with dysphasia (inability of sustaining attention or understanding a long phrase) ([3]; end of study, initially 83%): 42%
- patients with second thoughts disturbing concentration ([3]; end of study, initially 83%): 42%
- patients with cenesthesic presences (sleep) ([3]; end of the trial period, from 75%): 8.3%
- general state after waking up, sleeping without interruptions and ease of sleep ([3]; four evaluations over 6 months): improvement
- realistic dreams ([3]; four evaluations over 6 months): not significantly affected
- patients with blocking thoughts ([3]; in the course of treatment, 50% at the beginning): 25%
- Hypercritical thinking ([3]; over the course of the study): small improvement
- Tachypsychia ([3]; over the course of the study): small improvement
- inhibition of voltage-gated calcium channels (L-, N-, P/Q, T-type) [4]: not to inhibit
- effect on AMPA, kainate, NMDA, GABAA, GABAB, dopaminergic, serotonergic, adrenergic, muscarinic or cannabinoid receptors [5]: does not affect
- inhibition of GABA transaminase (GABA transaminase): does not inhibit
